Measurements published in US9568483B2, “Molecular subtyping, prognosis and treatment of prostate cancer” (CORNELL UNIVERSITY, priority 2011, dated 2017).
Entries after “also recorded” stand apart in the source; their conditions may differ.

Legend:
[1] = test system: LNCaP-n-Myc cells; test: WST-1 viability assay, LNCaP cells stably transfected with MYCN; type: cell-based; details: compared to control LNCaP cells (LNCaP-EV); 72 hours; FIG. 4A
Protocol: (§1) Drug Treatment. PHA-739358 was obtained from Nerviano Medical Sciences (Milan, Italy) in powder form (MW 414.36). Prostate cell lines for this study were obtained from the American Type Culture Collection (Manassas, Va.). RWPE (20×10^3 per well), NCI-H660 (20×10^3), DU145 (5×10^3 per well), VCaP (20×10^3 per well) and LNCaP (1.5×10^4 per well) cells were seeded on 96-well-tissue culture plates. At 24 hours, cell lines were treated with vehicle (0.5% DMSO) or escalating doses of PHA-739358 (5 nM, 50 nM, 100 nM, 500 nM, 1 uM, 5 uM). At 48 hr, 72 h, 96 h, and 120 h, viability was assessed by performing WST-1 assay (Roche, Indianapolis, Ind.) reading absorbance at 450 nm according to the manufacturer's instructions. Xenografts were prepared by injection of 1 million NCI-H660 cells, VCaP cells, or LNCaP cells into NU/J mice (Jackson Laboratories, Bar Harbor, Me.). LTL-362 xenografts were established at BC Cancer Center Living Tumor Laboratory as previously described (TUNG et al., Prostate (2010)). 3×3×2 mm2 tissue fragments were subcutaneously engrafted into fourteen 6-8 week old NOD/SCID mice. All xenograft tumors were allowed to grow to an average tumor weight of 100 mm^3. […] Mice were sacrificed on day 17, and tumors were evaluated for weight, gross pathology, histology, and IHC. […]

[2] = test system: NCI-H660 cells; test: WST-1 viability assay, NCI-H660; type: cell-based, human; details: compared to two PCA cell lines (DU145, VCaP) and benign RWPE-1 cells; 72 hours; FIG. 4B
Protocol: as §1

[3] = test system: LNCaP cells; test: Cell cycle FACS analysis, LNCaP; type: cell-based; details: 48 hrs treatment
Protocol: (§2) Cell Cycle Analysis. Cells were treated with PHA-739358 for 48 hrs. After treatment, cells were washed with cold PBS and fixed in 70% EtOH at −20° C. overnight. Cells were washed and suspended in 500 μl PBS containing 0.1% Triton X-100, 20 μg/ml Propidium Iodide (PI) and 200 μg/ml RNase A, incubated for 30 min at room temperature and subjected to FACS analysis using a LSR II Analyzer (BD Biosciences).

[4] = test system: LNCaP-MYCN cells; test: Cell cycle FACS analysis, LNCaP-MYCN; type: cell-based; details: 48 hrs treatment
Protocol: as §2

[5] = test system: NCI-H660 cells; test: Cell cycle FACS analysis, NCI-H660; type: cell-based, human; details: 48 hrs treatment
Protocol: as §2

[6] = test system: NCI-H660 xenografts; test: NCI-H660 xenograft study; type: in vivo, NU/J mice
Protocol: Drug Treatment. PHA-739358 was obtained from Nerviano Medical Sciences (Milan, Italy) in powder form (MW 414.36). Prostate cell lines for this study were obtained from the American Type Culture Collection (Manassas, Va.). RWPE (20×10^3 per well), NCI-H660 (20×10^3), DU145 (5×10^3 per well), VCaP (20×10^3 per well) and LNCaP (1.5×10^4 per well) cells were seeded on 96-well-tissue culture plates. At 24 hours, cell lines were treated with vehicle (0.5% DMSO) or escalating doses of PHA-739358 (5 nM, 50 nM, 100 nM, 500 nM, 1 uM, 5 uM). At 48 hr, 72 h, 96 h, and 120 h, viability was assessed by performing WST-1 assay (Roche, Indianapolis, Ind.) reading absorbance at 450 nm according to the manufacturer's instructions. Xenografts were prepared by injection of 1 million NCI-H660 cells, VCaP cells, or LNCaP cells into NU/J mice (Jackson Laboratories, Bar Harbor, Me.). LTL-362 xenografts were established at BC Cancer Center Living Tumor Laboratory as previously described (TUNG et al., Prostate (2010)). 3×3×2 […] tissue fragments were subcutaneously engrafted into fourteen 6-8 week old NOD/SCID mice. All xenograft tumors were allowed to grow to an average tumor […] of 100 mm^3. 20 LNCaP, 20 VCaP, 40 NCI-H660, 14 LTL-362 mice were randomized to treatment with PHA-739358 at 30 mg/kg intraperitoneal dosing on days 1-5 or vehicle. Body weight, tumor volume based on caliper measurements ([…]) and luciferase imaging were performed every 3 or 4 days after treatment. Mice were sacrificed on day 17, and tumors were evaluated for weight, gross pathology, histology, and IHC. Three tumors were processed during treatment (on day 4) to evaluate for phosphorylated histone 3 expression by IHC.
(§3) Immunohistochemistry (IHC). […] IHC was quantified on scale 0-3 and overexpression was defined as any staining intensity seen of target cells above background (similar methodology as was used in PARK et al., Neoplasia, 12:590-8 (2010)).
(§4) Xenografts. […] Mice were sacrificed on day 17, and tumors were evaluated for weight, gross pathology, histology, and IHC. […]

[7] = test system: LTL-352 xenograft; test: LTL-352 xenograft study; type: in vivo, NOD/SCID mice; details: LTL-352 xenografts; 30 mg/kg IP BID, 5 days; P<0.001
Protocol: as §1, with “(2010)).” for “(2010)). 3×3×2 mm2 tissue fragments were subcutaneously engrafted into fourteen 6-8 week old NOD/SCID mice. All xenograft tumors were allowed to grow to an average tumor weight of 100 mm^3.”
(§5) Xenografts. […] Mice were sacrificed on day 17, and tumors were evaluated for weight, gross pathology, histology, and IHC. […] Analysis was performed using LivingImage software (Xenogen) by measurement of the average photon flux (measured in photons/s/cm2/steradian) within a region of interest.

[8] = test system: LNCaP xenografts; test: LNCaP xenograft study; type: in vivo, NU/J mice
Protocol: as §1, with “Me.).” for “Me.). LTL-362 xenografts were established at BC Cancer Center Living Tumor Laboratory as previously described (TUNG et al., Prostate (2010)). 3×3×2 mm2 tissue fragments were subcutaneously engrafted into fourteen 6-8 week old NOD/SCID mice. All xenograft tumors were allowed to grow to an average tumor weight of 100 mm^3.”
as §3, §4

[9] = test system: VCaP xenografts; test: VCaP xenograft study; type: in vivo, NU/J mice; details: 30 mg/kg intraperitoneal, days 1-5
Protocol: as §1, with “(2010)).” for “(2010)). 3×3×2 mm2 tissue fragments were subcutaneously engrafted into fourteen 6-8 week old NOD/SCID mice. All xenograft tumors were allowed to grow to an average tumor weight of 100 mm^3.”
as §5

[10] = mouse, in vivo, ip, 30 mg/kg
Protocol: as §1, with “(2010)).” for “(2010)). 3×3×2 mm2 tissue fragments were subcutaneously engrafted into fourteen 6-8 week old NOD/SCID mice. All xenograft tumors were allowed to grow to an average tumor weight of 100 mm^3.”
as §5

CO[C@@H](C(=O)N1Cc2n[nH]c(NC(=O)c3ccc(N4CCN(C)CC4)cc3)c2C1)c1ccccc1 [PHA-739358]
in vitro sensitivity (viability) [1]: enhanced in vitro sensitivity
sensitivity (viability) [2]: enhanced sensitivity
Polyploidy [3]: induced
G2/M arrest ([3]; FIG. 5): dose dependent G2/M arrest
Polyploidy [4]: induced
G2/M arrest ([4]; FIG. 5): dose dependent G2/M arrest
Polyploidy [5]: induced
G2/M arrest ([5]; FIG. 5): no significant G2/M arrest
average tumor shrinkage ([6]; NCI-H660 xenografts, 30 mg/kg IP BID, 5 days, P<0.001): 50-87%
SYP (synaptophysin) expression (IHC) ([6]; treated NCI-H660 xenografts, FIG. 4F): negative; also recorded: completely suppressed
Phosphorylated histone 3 expression (IHC) ([6]; treated NCI-H660 xenografts, day 4 of treatment): significantly inhibited
average tumor shrinkage [7]: 50-87%
effect on tumor size ([8]; LNCaP xenografts, 30 mg/kg IP BID, 5 days): no effect
Phosphorylated histone 3 expression (IHC) ([8]; treated LNCaP xenografts, day 4 of treatment): not in the LNCaP xenografts
effect on tumor size [9]: cytostatic effect
toxicity as determined by body weight [10]: without significant toxicity
